Test: xn = mol fraction of the nth substance listed
Settings: 100 kPa

Work on CCOS(=O)(=O)[O-].CC[n+]1ccn(C)c1 + CCOCCO yielded a speed of sound (298.15 K, x2 = 0) of 1680.8 m/s, a speed of sound (318.15 K, x2 = 0) of 1632.4 m/s and a speed of sound (328.15 K, x2 = 0) of 1608.9 m/s.
In the case of CCOCCO + CCOS(=O)(=O)[O-].CC[n+]1ccn(C)c1, the speed of sound (298.15 K, x1 = 0.1202) was 1654.9 m/s, the speed of sound (298.15 K, x1 = 0.1846) was 1638.2 m/s and the speed of sound (298.15 K, x1 = 0.3548) was 1586.6 m/s. It also gave a speed of sound (298.15 K, x1 = 0.5511) of 1516.8 m/s, a speed of sound (298.15 K, x1 = 0.6529) of 1476.3 m/s and a speed of sound (298.15 K, x1 = 0.9094) of 1356.8 m/s. For the same compound, the speed of sound (298.15 K, x1 = 0.9512) was 1333.2 m/s, the speed of sound (298.15 K, x1 = 1) was 1302.8 m/s and the speed of sound (308.15 K, x1 = 0.1202) was 1630.3 m/s. For the same compound, the speed of sound (308.15 K, x1 = 0.1846) was 1613.2 m/s, the speed of sound (308.15 K, x1 = 0.2326) was 1599.2 m/s and the speed of sound (308.15 K, x1 = 0.3548) was 1560.3 m/s. The speed of sound (308.15 K, x1 = 0.4516) was 1526.4 m/s, the speed of sound (308.15 K, x1 = 0.5511) was 1488.9 m/s and the speed of sound (308.15 K, x1 = 0.6529) was 1447.6 m/s. For the same compound, the speed of sound (308.15 K, x1 = 0.9094) was 1324.7 m/s, the speed of sound (308.15 K, x1 = 0.9512) was 1300.2 m/s and the speed of sound (308.15 K, x1 = 1) was 1268.6 m/s. It also gave a speed of sound (318.15 K, x1 = 0.0588) of 1620.5 m/s, a speed of sound (318.15 K, x1 = 0.1846) of 1588.4 m/s and a speed of sound (318.15 K, x1 = 0.3548) of 1534.4 m/s. The speed of sound (318.15 K, x1 = 0.4516) was 1499.8 m/s, the speed of sound (318.15 K, x1 = 0.5511) was 1461.4 m/s and the speed of sound (318.15 K, x1 = 0.6529) was 1419.1 m/s. It also gave a speed of sound (318.15 K, x1 = 0.741) of 1379.3 m/s, a speed of sound (318.15 K, x1 = 0.8273) of 1336.7 m/s and a speed of sound (318.15 K, x1 = 0.8658) of 1316.4 m/s. For the same compound, the speed of sound (318.15 K, x1 = 0.9094) was 1291.9 m/s, the speed of sound (318.15 K, x1 = 0.9512) was 1266.4 m/s and the speed of sound (318.15 K, x1 = 1) was 1233.3 m/s. It also gave a speed of sound (328.15 K, x1 = 0.1202) of 1581.6 m/s, a speed of sound (328.15 K, x1 = 0.1846) of 1563.9 m/s and a speed of sound (328.15 K, x1 = 0.3548) of 1509 m/s. For the same compound, the speed of sound (328.15 K, x1 = 0.4516) was 1473.7 m/s, the speed of sound (328.15 K, x1 = 0.6529) was 1390.8 m/s and the speed of sound (328.15 K, x1 = 0.8273) was 1305.7 m/s. For the same compound, the speed of sound (328.15 K, x1 = 0.9094) was 1259.3 m/s, the speed of sound (328.15 K, x1 = 0.9512) was 1232.9 m/s and the speed of sound (328.15 K, x1 = 1) was 1198.8 m/s.
